From PMC5218480 (PLoS ONE, 2017)

System: MV-4-11 cells
Assay: Gene expression microarray analysis (Affymetrix PrimeView) and GSEA
Type: cell-based, human
Parameters: RFU PODN (11730768_x_at) / Fold change /veh PODN (11730768_x_at) / RFU LINC00158 (11744669_a_at) / Fold change /veh LINC00158 (11744669_a_at) / RFU DUSP10 (11751237_a_at) / Fold change /veh DUSP10 (11751237_a_at) / RFU ID3 (11757404_x_at) / Fold change /veh ID3 (11757404_x_at) / RFU PLEKHG5 (11737974_s_at) / Fold change /veh PLEKHG5 (11737974_s_at) / RFU LRRC4B (11730491_at) / Fold change /veh LRRC4B (11730491_at) / RFU GIMAP4 (11747438_a_at) / Fold change /veh GIMAP4 (11747438_a_at) / RFU KRT8 (11758183_x_at) / Fold change /veh KRT8 (11758183_x_at) / RFU CNN1 (11734310_a_at) / Fold change /veh CNN1 (11734310_a_at) / RFU VPS37D (11726825_at) / Fold change /veh VPS37D (11726825_at) / RFU C10orf10 (11716522_x_at) / Fold change /veh C10orf10 (11716522_x_at) / RFU KIR2DL2 /// KIR2DL4 /// KIR2DL5A /// KIR2DL5B /// KIR2DS1 /// KIR2DS2 /// KIR2DS3 /// KIR2DS4 /// KIR3DL3 /// KIR3DL3 /// KIR3DS1 (11738374_at) / Fold change /veh KIR2DL2 /// KIR2DL4 /// KIR2DL5A /// KIR2DL5B /// KIR2DS1 /// KIR2DS2 /// KIR2DS3 /// KIR2DS4 /// KIR3DL3 /// KIR3DL3 /// KIR3DS1 (11738374_at) / RFU C1QL1 (11718748_at) / Fold change /veh C1QL1 (11718748_at) / RFU TMPRSS4 (11747572_a_at) / Fold change /veh TMPRSS4 (11747572_a_at) / RFU HAMP (11756126_x_at) / Fold change /veh HAMP (11756126_x_at) / RFU RNFT2 (11725882_a_at) / Fold change /veh RNFT2 (11725882_a_at) / RFU NR4A2 (11747474_a_at) / Fold change /veh NR4A2 (11747474_a_at) / RFU ABCC12 (11746883_a_at) / Fold change /veh ABCC12 (11746883_a_at) / RFU TMEM136 (11760407_x_at) / Fold change /veh TMEM136 (11760407_x_at) / RFU CLDN22 /// WWC2 (11732394_at) / Fold change /veh CLDN22 /// WWC2 (11732394_at) / RFU HLA-DPB1 (11760878_x_at) / Fold change /veh HLA-DPB1 (11760878_x_at) / RFU SPINT1 (11716480_a_at) / Fold change /veh SPINT1 (11716480_a_at) / RFU GAP43 (11754022_s_at) / Fold change /veh GAP43 (11754022_s_at) / RFU A4GNT (11735810_at) / Fold change /veh A4GNT (11735810_at) / RFU PRB3 (11715151_x_at) / Fold change /veh PRB3 (11715151_x_at) / RFU TUBB4B (11761932_at) / Fold change /veh TUBB4B (11761932_at) / RFU CAPN14 (11732068_a_at) / Fold change /veh CAPN14 (11732068_a_at) / RFU TMCC2 (11721928_a_at) / Fold change /veh TMCC2 (11721928_a_at) / RFU IRGQ (11745062_a_at) / Fold change /veh IRGQ (11745062_a_at) / RFU FAM174B (11720279_a_at) / Fold change /veh FAM174B (11720279_a_at) / RFU TMPRSS4 (11748680_a_at) / Fold change /veh TMPRSS4 (11748680_a_at) / RFU FAM212B (11763350_a_at) / Fold change /veh FAM212B (11763350_a_at) / RFU PLEKHG5 (11743358_a_at) / Fold change /veh PLEKHG5 (11743358_a_at) / RFU ZSCAN30 (11745921_a_at) / Fold change /veh ZSCAN30 (11745921_a_at) / RFU CMKLR1 (11741424_a_at) / Fold change /veh CMKLR1 (11741424_a_at) / RFU LOC101060620 /// MAPK8IP1 (11723275_at) / Fold change /veh LOC101060620 /// MAPK8IP1 (11723275_at) / RFU SPTSSB (11747773_x_at) / Fold change /veh SPTSSB (11747773_x_at) / RFU PRSS12 (11739890_at) / Fold change /veh PRSS12 (11739890_at) / RFU BIN1 (11741810_x_at) / Fold change /veh BIN1 (11741810_x_at) / RFU WNT11 (11732464_a_at) / Fold change /veh WNT11 (11732464_a_at) / RFU C10orf10 (11716521_a_at) / Fold change /veh C10orf10 (11716521_a_at) / RFU C5orf56 (11738089_at) / Fold change /veh C5orf56 (11738089_at) / RFU CYB561 (11721691_x_at) / Fold change /veh CYB561 (11721691_x_at) / RFU ANKRD19P (11752326_a_at) / Fold change /veh ANKRD19P (11752326_a_at) / RFU OR2T12 /// OR2T33 /// OR2T8 (11738714_s_at) / Fold change /veh OR2T12 /// OR2T33 /// OR2T8 (11738714_s_at) / RFU VCAN (11748164_a_at) / Fold change /veh VCAN (11748164_a_at) / RFU JSRP1 (11732532_at) / Fold change /veh JSRP1 (11732532_at) / RFU KRTAP10-11 (11738290_x_at) / Fold change /veh KRTAP10-11 (11738290_x_at) / RFU MYO3A (11730013_a_at) / Fold change /veh MYO3A (11730013_a_at) / RFU EBF3 (11725865_a_at) / Fold change /veh EBF3 (11725865_a_at) / RFU CAMK2N1 (11719241_x_at) / Fold change /veh CAMK2N1 (11719241_x_at) / RFU C5orf56 (11738088_a_at) / Fold change /veh C5orf56 (11738088_a_at) / RFU OLFML3 (11715873_a_at) / Fold change /veh OLFML3 (11715873_a_at) / RFU LOC100653217 /// NTM (11731650_a_at) / Fold change /veh LOC100653217 /// NTM (11731650_a_at) / RFU MAPK11 (11762145_a_at) / Fold change /veh MAPK11 (11762145_a_at) / RFU FIZ1 (11724087_x_at) / Fold change /veh FIZ1 (11724087_x_at) / RFU OASL (11726364_x_at) / Fold change /veh OASL (11726364_x_at) / RFU SOX15 (11748057_x_at) / Fold change /veh SOX15 (11748057_x_at) / RFU CD79A (11719716_a_at) / Fold change /veh CD79A (11719716_a_at) / RFU HIST1H1D (11736915_at) / Fold change /veh HIST1H1D (11736915_at) / RFU CASKIN2 (11723855_a_at) / Fold change /veh CASKIN2 (11723855_a_at) / RFU LOC730098 (11760151_x_at) / Fold change /veh LOC730098 (11760151_x_at) / RFU OR4N2 (11742367_at) / Fold change /veh OR4N2 (11742367_at) / RFU PRRT2 (11749266_a_at) / Fold change /veh PRRT2 (11749266_a_at) / RFU SNX32 (11753110_a_at) / Fold change /veh SNX32 (11753110_a_at) / RFU CDHR5 (11726645_a_at) / Fold change /veh CDHR5 (11726645_a_at) / RFU RCAN1 (11760418_a_at) / Fold change /veh RCAN1 (11760418_a_at) / RFU FAM167A (11723789_a_at) / Fold change /veh FAM167A (11723789_a_at) / RFU FAM26E (11764081_at) / Fold change /veh FAM26E (11764081_at) / RFU ISYNA1 (11749810_s_at) / Fold change /veh ISYNA1 (11749810_s_at) / RFU ACY1 (11761880_at) / Fold change /veh ACY1 (11761880_at) / RFU 11764098_at / Fold change /veh 11764098_at / RFU SAMD14 (11745864_x_at) / Fold change /veh SAMD14 (11745864_x_at) / RFU NPB (11741838_a_at) / Fold change /veh NPB (11741838_a_at) / RFU TMPRSS6 (11731388_a_at) / Fold change /veh TMPRSS6 (11731388_a_at) / RFU KRTAP10-2 (11738614_at) / Fold change /veh KRTAP10-2 (11738614_at) / RFU ARHGAP8 /// PRR5-ARHGAP8 (11727945_x_at) / Fold change /veh ARHGAP8 /// PRR5-ARHGAP8 (11727945_x_at) / RFU KRTAP5-7 /// NADSYN1 (11734609_at) / Fold change /veh KRTAP5-7 /// NADSYN1 (11734609_at) / RFU RASL12 (11751679_a_at) / Fold change /veh RASL12 (11751679_a_at) / RFU CDKN2B (11736163_a_at) / Fold change /veh CDKN2B (11736163_a_at) / RFU PRF1 (11729649_at) / Fold change /veh PRF1 (11729649_at) / RFU, ZNF638 /// ZNF638-IT1 / Fold change vs veh, ZNF638 /// ZNF638-IT1 / RFU, PANK3 / Fold change vs veh, PANK3 / RFU, SH3YL1 / Fold change vs veh, SH3YL1 / RFU, ZEB2 / Fold change vs veh, ZEB2 / RFU, NRIP1 / Fold change vs veh, NRIP1 / RFU, PTTG1IP / Fold change vs veh, PTTG1IP / RFU, CAPN2 / Fold change vs veh, CAPN2 / RFU, MED14 / Fold change vs veh, MED14 / RFU, SNORA58 / Fold change vs veh, SNORA58 / RFU, C1orf63 / Fold change vs veh, C1orf63 / RFU, LRRFIP1 / Fold change vs veh, LRRFIP1 / RFU, NDUFAF7 / Fold change vs veh, NDUFAF7 / RFU, SLC12A2 / Fold change vs veh, SLC12A2 / RFU, IBTK / Fold change vs veh, IBTK / RFU, ESF1 / Fold change vs veh, ESF1 / Fold change vs veh, TMEM50B / RFU, TAOK1 / Fold change vs veh, TAOK1 / RFU, ACBD3 / Fold change vs veh, ACBD3 / RFU, TMA16 / Fold change vs veh, TMA16 / RFU, RWDD3 / Fold change vs veh, RWDD3 / RFU, BCAT1 / Fold change vs veh, BCAT1 / RFU, EDEM3 / Fold change vs veh, EDEM3 / RFU, TMEM33 / Fold change vs veh, TMEM33 / RFU, WDR75 / Fold change vs veh, WDR75 / RFU, AHCTF1 / Fold change vs veh, AHCTF1 / RFU, TFRC / Fold change vs veh, TFRC / RFU, ZDHHC17 / Fold change vs veh, ZDHHC17 / RFU, NOM1 / Fold change vs veh, NOM1 / RFU, ARL8B / Fold change vs veh, ARL8B / RFU, ZBTB11 / Fold change vs veh, ZBTB11 / RFU, TAMM41 / Fold change vs veh, TAMM41 / RFU, KIAA1704 /// LOC100996395 / Fold change vs veh, KIAA1704 /// LOC100996395 / RFU, ING1 / Fold change vs veh, ING1 / RFU, TRMT61B / Fold change vs veh, TRMT61B / RFU, FUBP3 / Fold change vs veh, FUBP3 / RFU, TP53 / Fold change vs veh, TP53 / RFU, TNKS2 / Fold change vs veh, TNKS2 / RFU, ZFP14 / Fold change vs veh, ZFP14 / RFU, ACTR2 / Fold change vs veh, ACTR2 / RFU, PPP3R1 / Fold change vs veh, PPP3R1 / RFU, PIK3R1 / Fold change vs veh, PIK3R1 / RFU, HNRNPA1 / Fold change vs veh, HNRNPA1 / RFU, RNF170 / Fold change vs veh, RNF170 / RFU, ZNF28 / Fold change vs veh, ZNF28 / RFU, RNGTT / Fold change vs veh, RNGTT / RFU, OGT / Fold change vs veh, OGT / RFU, BRD1 / Fold change vs veh, BRD1 / RFU, MARS / Fold change vs veh, MARS / RFU, ZNF655 / Fold change vs veh, ZNF655 / RFU, FAHD1 / Fold change vs veh, FAHD1 / RFU, BDP1 / Fold change vs veh, BDP1 / RFU, LRRCC1 / Fold change vs veh, LRRCC1 / RFU, ARID1A / Fold change vs veh, ARID1A / RFU, ZNF146 / Fold change vs veh, ZNF146 / RFU, ZNF330 / Fold change vs veh, ZNF330 / RFU, GPN3 / Fold change vs veh, GPN3 / RFU, C9orf123 / Fold change vs veh, C9orf123 / RFU, N4BP2L2 / Fold change vs veh, N4BP2L2 / RFU, ARFIP1 / Fold change vs veh, ARFIP1 / RFU, FAM179B / Fold change vs veh, FAM179B / RFU, BCL10 / Fold change vs veh, BCL10 / RFU, UHRF1BP1L / Fold change vs veh, UHRF1BP1L / RFU, BET1 / Fold change vs veh, BET1 / RFU, CNOT2 / Fold change vs veh, CNOT2 / RFU, ZNF268 / Fold change vs veh, ZNF268 / Fold change vs veh, ZNF507 / RFU, DGCR2 / Fold change vs veh, DGCR2 / RFU, WDSUB1 / Fold change vs veh, WDSUB1 / Fold change vs veh, HSP90B1 /// MIR3652 / RFU, ADSS / Fold change vs veh, ADSS / RFU, GK / Fold change vs veh, GK / RFU, ZNF148 / Fold change vs veh, ZNF148 / RFU, TAF9 / Fold change vs veh, TAF9 / RFU, SLC1A5 / Fold change vs veh, SLC1A5 / RFU, SLMO2 / Fold change vs veh, SLMO2 / RFU, ABCC4 / Fold change vs veh, ABCC4 / RFU, LOC101060439 /// RAP1B / Fold change vs veh, LOC101060439 /// RAP1B / RFU, RFX7 / Fold change vs veh, RFX7 / RFU, GTPBP10 / Fold change vs veh, GTPBP10 / RFU, CNEP1R1 / Fold change vs veh, CNEP1R1 / RFU, BIVM-ERCC5 /// ERCC5 / Fold change vs veh, BIVM-ERCC5 /// ERCC5 / RFU, ILF3 / Fold change vs veh, ILF3 / RFU 11762660_at / Fold change /veh 11762660_at / RFU VCAN (11757783_s_at) / Fold change /veh VCAN (11757783_s_at) / RFU DDX43 (11728927_at) / Fold change /veh DDX43 (11728927_at) / RFU KRT8 (11758188_x_at) / Fold change /veh KRT8 (11758188_x_at) / RFU NKD1 (11759106_at) / Fold change /veh NKD1 (11759106_at) / RFU SRD5A1 (11742802_a_at) / Fold change /veh SRD5A1 (11742802_a_at) / RFU TPSAB1 /// TPSB2 (11721975_s_at) / Fold change /veh TPSAB1 /// TPSB2 (11721975_s_at) / RFU GSTM3 (11746129_a_at) / Fold change /veh GSTM3 (11746129_a_at) / RFU IL23R (11737362_x_at) / Fold change /veh IL23R (11737362_x_at) / RFU TMEM51 (11727254_a_at) / Fold change /veh TMEM51 (11727254_a_at) / RFU PIWIL2 (11732686_x_at) / Fold change /veh PIWIL2 (11732686_x_at) / RFU ORM1 (11744905_x_at) / Fold change /veh ORM1 (11744905_x_at) / RFU CCDC152 (11743942_at) / Fold change /veh CCDC152 (11743942_at) / RFU ECM1 (11717891_a_at) / Fold change /veh ECM1 (11717891_a_at) / RFU IL23R (11748794_a_at) / Fold change /veh IL23R (11748794_a_at) / RFU TNFAIP8L3 (11732012_x_at) / Fold change /veh TNFAIP8L3 (11732012_x_at) / RFU MBOAT4 (11741988_at) / Fold change /veh MBOAT4 (11741988_at) / RFU 11764193_at / Fold change /veh 11764193_at / RFU TMEM53 (11763286_at) / Fold change /veh TMEM53 (11763286_at) / RFU MAGEB2 (11727129_at) / Fold change /veh MAGEB2 (11727129_at) / RFU TMEM200A (11744735_a_at) / Fold change /veh TMEM200A (11744735_a_at) / RFU CCDC152 (11751479_a_at) / Fold change /veh CCDC152 (11751479_a_at) / RFU FAM211A (11726209_a_at) / Fold change /veh FAM211A (11726209_a_at) / RFU RGS16 (11746705_a_at) / Fold change /veh RGS16 (11746705_a_at) / RFU VCAN (11755009_s_at) / Fold change /veh VCAN (11755009_s_at) / RFU RHOB (11743442_s_at) / Fold change /veh RHOB (11743442_s_at) / RFU RGS16 (11720943_a_at) / Fold change /veh RGS16 (11720943_a_at) / RFU RGS16 (11720944_at) / Fold change /veh RGS16 (11720944_at) / RFU, VPS4B / Fold change vs veh, VPS4B / RFU, CREB1 / Fold change vs veh, CREB1 / RFU, DNAJC13 / Fold change vs veh, DNAJC13 / RFU, GNAQ / Fold change vs veh, GNAQ / RFU, CDK5R1 / Fold change vs veh, CDK5R1 / RFU, ZRANB3 / Fold change vs veh, ZRANB3 / RFU, CUL4A / Fold change vs veh, CUL4A / RFU, CCNY / Fold change vs veh, CCNY / RFU, UFL1 / Fold change vs veh, UFL1 / RFU, COG3 / Fold change vs veh, COG3 / RFU, DIAPH2 / Fold change vs veh, DIAPH2 / RFU, SKA2 / Fold change vs veh, SKA2 / RFU, AFF3 / Fold change vs veh, AFF3 / RFU, LMF1 / Fold change vs veh, LMF1 / RFU, IPO11 / Fold change vs veh, IPO11 / RFU, DFFB / Fold change vs veh, DFFB / RFU, FOXP1 / Fold change vs veh, FOXP1 / RFU, CARD8 / Fold change vs veh, CARD8 / RFU, STRN3 / Fold change vs veh, STRN3 / RFU, ADK / Fold change vs veh, ADK / RFU, RASSF2 / Fold change vs veh, RASSF2 / RFU, WIPF1 / Fold change vs veh, WIPF1 / RFU, LARP1B / Fold change vs veh, LARP1B / RFU, RASA1 / Fold change vs veh, RASA1 / RFU, RB1 / Fold change vs veh, RB1 / RFU, PPFIA1 / Fold change vs veh, PPFIA1 / RFU, MAT2A / Fold change vs veh, MAT2A / RFU, CCT5 / Fold change vs veh, CCT5 / RFU, WDR92 / Fold change vs veh, WDR92 / RFU, CUX1 / Fold change vs veh, CUX1 / RFU, TTC7A / Fold change vs veh, TTC7A / RFU, TMEM135 / Fold change vs veh, TMEM135 / RFU, DEPTOR / Fold change vs veh, DEPTOR / RFU, CPM / Fold change vs veh, CPM / RFU, DNAJB6 / Fold change vs veh, DNAJB6 / RFU, CACNA2D3 / Fold change vs veh, CACNA2D3 / RFU, DTX4 / Fold change vs veh, DTX4 / RFU, TFCP2 / Fold change vs veh, TFCP2 / RFU, GMCL1 /// GMCL1P1 / Fold change vs veh, GMCL1 /// GMCL1P1 / RFU, AEBP2 / Fold change vs veh, AEBP2 / RFU, SNHG1 /// SNORD22 /// SNORD25 /// SNORD26 /// SNORD27 /// SNORD28 /// SNORD29 /// SNORD31 / Fold change vs veh, SNHG1 /// SNORD22 /// SNORD25 /// SNORD26 /// SNORD27 /// SNORD28 /// SNORD29 /// SNORD31 / Fold change (Aza/veh), C12orf56 (ProbeSet 11735607_a_at) / Fold change (ACY-1035/veh), C12orf56 (ProbeSet 11735607_a_at) / Fold change (Aza/veh), FGFR1OP (ProbeSet 11751329_s_at) / Fold change (ACY-1035/veh), FGFR1OP (ProbeSet 11751329_s_at) / Fold change (Aza/veh), VPS36 (ProbeSet 11739960_a_at) / Fold change (ACY-1035/veh), VPS36 (ProbeSet 11739960_a_at) / RFU SYPL1 (11715823_x_at) / Fold change /veh SYPL1 (11715823_x_at) / RFU IGFBP7 (11715501_s_at) / Fold change /veh IGFBP7 (11715501_s_at) / RFU REEP3 (11722064_at) / Fold change /veh REEP3 (11722064_at) / RFU IGLL1 (11728026_x_at) / Fold change /veh IGLL1 (11728026_x_at): dose or concentration left out as unconfirmed
Details: MV-4-11 cells, 48 hours

Question: For `Nc1ncn([C@@H]2O[C@H](CO)[C@@H](O)[C@H]2O)c(=O)n1` [azacitidine], which “RFU NR4A2 (11747474_a_at)” value is on record?
Answer: 22.61 RFU
